Experimental data taken from the Kinase Knowledgebase extract (Sharma et al. 2016).

Assays:
MAPK14 (human) = MAPK14 (human) (UniProt Q16539); assay: p38 Kinase Inhibition
MAPK14 = MAPK14 (UniProt Q16539); assay: p38 --- TNF-alpha Inhibition; settings: for IC50: thp1
Chain of MAPK14 (Q16539 whole entry, looked up): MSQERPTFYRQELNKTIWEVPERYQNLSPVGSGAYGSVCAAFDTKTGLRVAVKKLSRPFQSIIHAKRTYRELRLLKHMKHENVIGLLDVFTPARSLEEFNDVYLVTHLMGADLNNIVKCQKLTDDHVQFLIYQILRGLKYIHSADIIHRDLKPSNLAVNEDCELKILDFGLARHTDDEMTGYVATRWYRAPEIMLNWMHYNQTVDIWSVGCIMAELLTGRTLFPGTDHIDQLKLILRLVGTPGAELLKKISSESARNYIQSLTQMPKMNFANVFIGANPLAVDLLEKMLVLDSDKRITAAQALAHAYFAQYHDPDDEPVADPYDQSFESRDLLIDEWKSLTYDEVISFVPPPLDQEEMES

Chain of MAPK14 (human) (Q16539 whole entry, looked up): as above

IC50 (MAPK14 (human)) [nM]	IC50 (MAPK14) [nM]	inhibition (MAPK14; thp1, concentration not given here) [%]	Structure (SMILES)
17100	1710		CNc1nccc(-c2c3cccccc-3nc2-c2ccc(F)cc2)n1
4760	263		Cc1ccc(-c2nc3cccccc-3c2-c2ccncc2)cc1
1470	160		FC(F)(F)c1cccc(-c2nc3cccccc-3c2-c2ccncc2)c1
2850	675		CNc1nccc(-c2c3cccccc-3nc2-c2cccc(C(F)(F)F)c2)n1
935	950		Fc1cc(-c2c3cccccc-3nc2-c2cccc(Cl)c2)ccn1
3280	1560		Fc1ccc(-c2nc3cccccc-3c2-c2ccnc(F)c2)cc1
2790	1400		Clc1ccc(-c2nc3cccccc-3c2-c2ccncc2)cc1
1340	230		Fc1ccc(-c2nc3cccccc-3c2-c2ccncc2)cc1
12100	1610		Fc1cc(-c2c3cccccc-3nc2-c2cccc(C(F)(F)F)c2)ccn1
2590	4510		CSc1nccc(-c2c3cccccc-3nc2-c2ccc(F)cc2)n1
24100		37	COc1ccc(-c2nc3cccccc-3c2-c2ccncc2)cc1
4960	1420		Clc1cccc(-c2nc3cccccc-3c2-c2ccncc2)c1
